Test results taken from patent US20230398130A1, “METHODS AND COMPOSITIONS FOR DIFFERENTIATING STEM CELLS” (Massachusetts Institute of Technology, priority 2020, published 2023).

Legend:
ISC-enriched organoids [1] = test: Primary screen, 384-well 2.5-D organoid differentiation (ENR+CD, 6 days): basal lysozyme secretion (LYZ.NS); format: cell-based, murine; conditions: for Dose.FC.LYZ.NS (log 2 fold change, basal lysozyme secretion): vs plate median; for Dose.FC.LYZ.NS: FC vs plate median; for SSMD.LYZ.NS: strictly standardized mean difference
Description: (§1) High-throughput screening.

ISC-enriched organoids [2] = test: Primary screen, 384-well 2.5-D organoid differentiation (ENR+CD, 6 days): carbachol-induced lysozyme secretion (LYZ.S); format: cell-based, murine; conditions: for Dose.FC.LYZ.S (log 2 fold change, carbachol-induced lysozyme secretion): vs plate median; for Dose.FC.LYZ.S / Z.LYZ.S / SSMD.LYZ.S: primary screen; for Dose.FC.LYZ.S: FC vs plate median; for Z.LYZ.S: standard z score; for SSMD.LYZ.S: strictly standardized mean difference
Description: as §1

ISC-enriched organoids [3] = test: Primary screen, 384-well 2.5-D organoid differentiation (ENR+CD, 6 days, Target Selective Inhibitor Library, vs whole-plate median): ATP (CellTiter-Glo 3D, CTG); conditions: for Dose.FC.CTG (log 2 fold change, ATP): vs plate median; for Dose.FC.CTG: FC vs plate median; for SSMD.CTG: strictly standardized mean difference
[4] = Dose 0.08 uM, standard z score of FC
[5] = Dose 0.40 uM, standard z score of FC
[6] = Dose 2.00 uM, standard z score of FC
[7] = Dose 10.00 uM, standard z score of FC
[8] = primary screen, 1st of the 4 dose lines of the treatment (dose not given)
[9] = primary screen, 2nd of the 4 dose lines of the treatment (dose not given)
[10] = primary screen, 3rd of the 4 dose lines of the treatment (dose not given)
[11] = primary screen, 4th of the 4 dose lines of the treatment (dose not given)
[12] = 1st of the 4 dose lines of the treatment (dose not given)
[13] = 2nd of the 4 dose lines of the treatment (dose not given)
[14] = 3rd of the 4 dose lines of the treatment (dose not given)
[15] = 4th of the 4 dose lines of the treatment (dose not given)
[16] = Dose 0.08 uM, primary screen, standard z score
[17] = Dose 0.40 uM, primary screen, standard z score
[18] = Dose 2.00 uM, primary screen, standard z score
[19] = Dose 10.00 uM, primary screen, standard z score

In the case of `O=C(c1cncc(Br)c1)N1CCC(N2CCCC2)CC1` [UNC669], the “Z.LYZ.NS (standard z score)” value (ISC-enriched organoids [1]; dose 0.08 uM) is reported as 0.578, the “Dose.FC.LYZ.NS (log 2 fold change, basal lysozyme secretion)” value (ISC-enriched organoids [1]; dose 0.08 uM) is reported as 0.066 and the “Z.LYZ.NS (standard z score)” value (ISC-enriched organoids [1]; dose 0.40 uM) is reported as −0.048. For the same compound, the “Dose.FC.LYZ.NS (log 2 fold change, basal lysozyme secretion)” value (ISC-enriched organoids [1]; dose 0.40 uM) was −0.006, the “Z.LYZ.NS (standard z score)” value (ISC-enriched organoids [1]; dose 2.00 uM) was 0.606 and the “Dose.FC.LYZ.NS (log 2 fold change, basal lysozyme secretion)” value (ISC-enriched organoids [1]; dose 2.00 uM) was 0.070. For the same compound, the “Z.LYZ.NS (standard z score)” value (ISC-enriched organoids [1]; dose 10.00 uM) was 0.249, the “Dose.FC.LYZ.NS (log 2 fold change, basal lysozyme secretion)” value (ISC-enriched organoids [1]; dose 10.00 uM) was 0.029 and the “Dose.FC.LYZ.S (log 2 fold change, carbachol-induced lysozyme secretion)” value (ISC-enriched organoids [2]; dose 0.08 uM) was 0.047. For the same compound, the “Dose.FC.LYZ.S (log 2 fold change, carbachol-induced lysozyme secretion)” value (ISC-enriched organoids [2]; dose 0.40 uM) was −0.029, the “Dose.FC.LYZ.S (log 2 fold change, carbachol-induced lysozyme secretion)” value (ISC-enriched organoids [2]; dose 2.00 uM) was 0.025 and the “Dose.FC.LYZ.S (log 2 fold change, carbachol-induced lysozyme secretion)” value (ISC-enriched organoids [2]; dose 10.00 uM) was 0.002. The “Z.CTG (standard z score)” value (ISC-enriched organoids [3]; dose 0.08 uM) was −0.226, the “Dose.FC.CTG (log 2 fold change, ATP)” value (ISC-enriched organoids [3]; dose 0.08 uM) was −0.095 and the “Z.CTG (standard z score)” value (ISC-enriched organoids [3]; dose 0.40 uM) was 0.228. For the same compound, the “Dose.FC.CTG (log 2 fold change, ATP)” value (ISC-enriched organoids [3]; dose 0.40 uM) was 0.096, the “Z.CTG (standard z score)” value (ISC-enriched organoids [3]; dose 2.00 uM) was −0.561 and the “Dose.FC.CTG (log 2 fold change, ATP)” value (ISC-enriched organoids [3]; dose 2.00 uM) was −0.235. For the same compound, the “Z.CTG (standard z score)” value (ISC-enriched organoids [3]; dose 10.00 uM) was 0.174 and the “Dose.FC.CTG (log 2 fold change, ATP)” value (ISC-enriched organoids [3]; dose 10.00 uM) was 0.073.
`C[C@](O)(COc1ccc(C#N)cc1)C(=O)Nc1ccc(C#N)c(C(F)(F)F)c1` [MK-2866 (GTx-024)] gave a Dose.FC.LYZ.NS (ISC-enriched organoids [1]; Dose 0.08 uM, primary screen) of 0.035 log 2 fold change, a Z.LYZ.NS (ISC-enriched organoids [1]; [4]) of 0.309 and a Dose.FC.LYZ.NS (ISC-enriched organoids [1]; Dose 0.40 uM, primary screen) of 0.028 log 2 fold change. For the same compound, the Z.LYZ.NS (ISC-enriched organoids [1]; [5]) was 0.241, the Dose.FC.LYZ.NS (ISC-enriched organoids [1]; Dose 2.00 uM, primary screen) was 0.036 log 2 fold change and the Z.LYZ.NS (ISC-enriched organoids [1]; [6]) was 0.310. For the same compound, the Dose.FC.LYZ.NS (ISC-enriched organoids [1]; Dose 10.00 uM, primary screen) was −0.059 log 2 fold change, the Z.LYZ.NS (ISC-enriched organoids [1]; [7]) was −0.510 and the SSMD.LYZ.NS (ISC-enriched organoids [1]; [8]) was 0.314. For the same compound, the SSMD.LYZ.NS (ISC-enriched organoids [1]; [9]) was 0.150, the SSMD.LYZ.NS (ISC-enriched organoids [1]; [10]) was 0.169 and the SSMD.LYZ.NS (ISC-enriched organoids [1]; [11]) was −0.515. It also gave a Dose.FC.LYZ.S (ISC-enriched organoids [2]; Dose 0.08 uM) of 0.072 log 2 fold change, a Dose.FC.LYZ.S (ISC-enriched organoids [2]; Dose 0.40 uM) of 0.050 log 2 fold change and a Dose.FC.LYZ.S (ISC-enriched organoids [2]; Dose 2.00 uM) of 0.078 log 2 fold change. The Dose.FC.LYZ.S (ISC-enriched organoids [2]; Dose 10.00 uM) was −0.072 log 2 fold change, the Z.LYZ.S (ISC-enriched organoids [2]; [12]) was 0.466 and the Z.LYZ.S (ISC-enriched organoids [2]; [13]) was 0.322. For the same compound, the Z.LYZ.S (ISC-enriched organoids [2]; [14]) was 0.506, the Z.LYZ.S (ISC-enriched organoids [2]; [15]) was −0.463 and the SSMD.LYZ.S (ISC-enriched organoids [2]; [12]) was 0.378. It also gave an SSMD.LYZ.S (ISC-enriched organoids [2]; [13]) of 0.164, an SSMD.LYZ.S (ISC-enriched organoids [2]; [14]) of 0.307 and an SSMD.LYZ.S (ISC-enriched organoids [2]; [15]) of −0.543. For the same compound, the Dose.FC.CTG (ISC-enriched organoids [3]; Dose 0.08 uM, primary screen) was 0.001 log 2 fold change, the Z.CTG (ISC-enriched organoids [3]; [4]) was 0.003 and the Dose.FC.CTG (ISC-enriched organoids [3]; Dose 0.40 uM, primary screen) was −0.198 log 2 fold change. The Z.CTG (ISC-enriched organoids [3]; [5]) was −0.474, the Dose.FC.CTG (ISC-enriched organoids [3]; Dose 2.00 uM, primary screen) was −0.088 log 2 fold change and the Z.CTG (ISC-enriched organoids [3]; [6]) was −0.210. For the same compound, the Dose.FC.CTG (ISC-enriched organoids [3]; Dose 10.00 uM, primary screen) was −0.367 log 2 fold change, the Z.CTG (ISC-enriched organoids [3]; [7]) was −0.877 and the SSMD.CTG (ISC-enriched organoids [3]; [8]) was 0.004. For the same compound, the SSMD.CTG (ISC-enriched organoids [3]; [9]) was −0.285, the SSMD.CTG (ISC-enriched organoids [3]; [10]) was −0.199 and the SSMD.CTG (ISC-enriched organoids [3]; [11]) was −0.814.
For Ifenprodil Tartrate, the Dose.FC.LYZ.NS (ISC-enriched organoids [1]; Dose 0.08 uM, primary screen) was 0.056 log 2 fold change, the Z.LYZ.NS (ISC-enriched organoids [1]; [16]) was 0.492 and the Dose.FC.LYZ.NS (ISC-enriched organoids [1]; Dose 0.40 uM, primary screen) was −0.019 log 2 fold change. It also gave a Z.LYZ.NS (ISC-enriched organoids [1]; [17]) of −0.161, a Dose.FC.LYZ.NS (ISC-enriched organoids [1]; Dose 2.00 uM, primary screen) of 0.123 log 2 fold change and a Z.LYZ.NS (ISC-enriched organoids [1]; [18]) of 1.068. It also gave a Dose.FC.LYZ.NS (ISC-enriched organoids [1]; Dose 10.00 uM, primary screen) of −0.219 log 2 fold change, a Z.LYZ.NS (ISC-enriched organoids [1]; [19]) of −1.909 and an SSMD.LYZ.NS (ISC-enriched organoids [1]; [8]) of 0.372. For the same compound, the SSMD.LYZ.NS (ISC-enriched organoids [1]; [9]) was −0.116, the SSMD.LYZ.NS (ISC-enriched organoids [1]; [10]) was 0.504 and the SSMD.LYZ.NS (ISC-enriched organoids [1]; [11]) was −1.176. The Dose.FC.LYZ.S (ISC-enriched organoids [2]; Dose 0.08 uM) was 0.050 log 2 fold change, the Dose.FC.LYZ.S (ISC-enriched organoids [2]; Dose 0.40 uM) was 0.017 log 2 fold change and the Dose.FC.LYZ.S (ISC-enriched organoids [2]; Dose 2.00 uM) was −0.023 log 2 fold change. The Dose.FC.LYZ.S (ISC-enriched organoids [2]; Dose 10.00 uM) was −0.301 log 2 fold change, the Z.LYZ.S (ISC-enriched organoids [2]; [12]) was 0.325 and the Z.LYZ.S (ISC-enriched organoids [2]; [13]) was 0.107. The Z.LYZ.S (ISC-enriched organoids [2]; [14]) was −0.151, the Z.LYZ.S (ISC-enriched organoids [2]; [15]) was −1.947 and the SSMD.LYZ.S (ISC-enriched organoids [2]; [12]) was 0.255. It also gave an SSMD.LYZ.S (ISC-enriched organoids [2]; [13]) of 0.091, an SSMD.LYZ.S (ISC-enriched organoids [2]; [14]) of −0.103 and an SSMD.LYZ.S (ISC-enriched organoids [2]; [15]) of −1.030. It also gave a Dose.FC.CTG (ISC-enriched organoids [3]; Dose 0.08 uM, primary screen) of 0.102 log 2 fold change, a Z.CTG (ISC-enriched organoids [3]; [16]) of 0.243 and a Dose.FC.CTG (ISC-enriched organoids [3]; Dose 0.40 uM, primary screen) of 0.111 log 2 fold change. It also gave a Z.CTG (ISC-enriched organoids [3]; [17]) of 0.265, a Dose.FC.CTG (ISC-enriched organoids [3]; Dose 2.00 uM, primary screen) of −0.003 log 2 fold change and a Z.CTG (ISC-enriched organoids [3]; [18]) of −0.008. For the same compound, the Dose.FC.CTG (ISC-enriched organoids [3]; Dose 10.00 uM, primary screen) was −1.034 log 2 fold change, the Z.CTG (ISC-enriched organoids [3]; [19]) was −2.471 and the SSMD.CTG (ISC-enriched organoids [3]; [8]) was 0.218. For the same compound, the SSMD.CTG (ISC-enriched organoids [3]; [9]) was 0.279, the SSMD.CTG (ISC-enriched organoids [3]; [10]) was −0.009 and the SSMD.CTG (ISC-enriched organoids [3]; [11]) was −1.277.
Work on `NCC(=O)Nc1ccc(-n2nc(C(F)(F)F)cc2-c2ccc3c(ccc4ccccc43)c2)cc1` [OSU-03012 (AR-12)] yielded a Dose.FC.LYZ.NS (ISC-enriched organoids [1]; Dose 0.08 uM, primary screen) of 0.087 log 2 fold change, a Z.LYZ.NS (ISC-enriched organoids [1]; [4]) of 0.755 and a Dose.FC.LYZ.NS (ISC-enriched organoids [1]; Dose 0.40 uM, primary screen) of 0.033 log 2 fold change. For the same compound, the Z.LYZ.NS (ISC-enriched organoids [1]; [5]) was 0.285, the Dose.FC.LYZ.NS (ISC-enriched organoids [1]; Dose 2.00 uM, primary screen) was 0.053 log 2 fold change and the Z.LYZ.NS (ISC-enriched organoids [1]; [6]) was 0.460. It also gave a Dose.FC.LYZ.NS (ISC-enriched organoids [1]; Dose 10.00 uM, primary screen) of −0.049 log 2 fold change, a Z.LYZ.NS (ISC-enriched organoids [1]; [7]) of −0.423 and a Dose.FC.LYZ.S (ISC-enriched organoids [2]; Dose 0.08 uM) of 0.126 log 2 fold change. For the same compound, the Dose.FC.LYZ.S (ISC-enriched organoids [2]; Dose 0.40 uM) was 0.113 log 2 fold change, the Dose.FC.LYZ.S (ISC-enriched organoids [2]; Dose 2.00 uM) was 0.060 log 2 fold change and the Dose.FC.LYZ.S (ISC-enriched organoids [2]; Dose 10.00 uM) was −0.128 log 2 fold change. It also gave a Dose.FC.CTG (ISC-enriched organoids [3]; Dose 0.08 uM, primary screen) of 0.205 log 2 fold change, a Z.CTG (ISC-enriched organoids [3]; [4]) of 0.491 and a Dose.FC.CTG (ISC-enriched organoids [3]; Dose 0.40 uM, primary screen) of 0.114 log 2 fold change. It also gave a Z.CTG (ISC-enriched organoids [3]; [5]) of 0.272, a Dose.FC.CTG (ISC-enriched organoids [3]; Dose 2.00 uM, primary screen) of 0.233 log 2 fold change and a Z.CTG (ISC-enriched organoids [3]; [6]) of 0.556. It also gave a Dose.FC.CTG (ISC-enriched organoids [3]; Dose 10.00 uM, primary screen) of 0.078 log 2 fold change and a Z.CTG (ISC-enriched organoids [3]; [7]) of 0.185.
